Tested on: subjects with insomnia related to major depressive disorder
Experiment: DREAMDD clinical study: Clinical Global Impression (Severity 1=normal to 7=most extremely depressed; Global Improvement 1=very much improved to 7=very much worse)
Assay type: in vivo, human
Details: for CGI - Global Improvement, Mean (SD) / CGI - Global Improvement, Median / CGI - Severity, Change from Baseline, Mean (SD) / CGI - Severity, Change from Baseline, Median / CGI - Severity, Observed Value, Mean (SD) / CGI - Severity, Observed Value, Median / CGI - Severity, Change from Baseline, Least Squares Mean (SE): ITT; for CGI - Severity, Change from Baseline, Least Squares Mean (SE): ANCOVA
Procedure: Depression Response to Eszopiclone in Adults With Major Depressive Disorder (DREAMDD): A Randomized, Double-Blind, Placebo-Controlled, Parallel-Group, 8-Week, Safety and Efficacy Study of Eszopiclone 3 mg Compared to Placebo in Subjects with Insomnia Related to Major Depressive Disorder
This study was a double-blind randomized, placebo-controlled, parallel group study. […] All subjects must satisfy DSM-IV criteria for insomnia related to major depression.
Sleep, Depression, and Productivity Questionnaires and Clinical Global Impression: The following questionnaires were administered as listed below. • Epworth Sleepiness Scale (ESS): ESS was completed by the subject at Visits 2-10. The ESS is a subjective assessment of the likelihood of falling asleep in various situations. • Insomnia Severity Index (ISI): ISI was completed by the subject at Visits 3, 5, 7, 9 and 10. The ISI is a subjective assessment of sleep quality, restedness/refreshness upon arising, daytime fatigue, attention/concentration and relationship and mood disturbances. • Work Limitations Questionnaire (WLQ): WLQ was completed by the subject at Visits 3, 5, 7, 9, and 10. The WLQ is a validated self-report instrument for measuring the degree to which chronic health problems interfere with ability to perform job roles, addressing the content of the job through a demand-level methodology. • Hamilton Depression-17: HAM-D-17 was administered via IVRS at screening and rated by a trained clinician at Visits 3, 7, 9, and 10. • SF-36: SF-36 was completed by the subject at Visits 3, 7, 9 and 10. The SF-36 represents multiple operational definitions of health, including function and dysfunction, distress and well-being, objective reports and subjective ratings, and both favorable and unfavorable self-evaluations of general health status. • Clinical Global Impression (CGI): CGI was completed by the investigator at Visits 3-10 The CGI is the investigator's subjective assessment of improvement in the subject's depressive symptoms. The response on the CGI at Visit 7 (Week 4 of double-blind treatment) was used by the investigator to assess the need for increasing the dose of fluoxetine to 40 mg daily (in the morning). […] Study Conduct
Clinical Global Impression: In this test, a medical professional rates the patient's depression and whether the improvement in depression is due to the drug treatment. Question 1) Severity: Considering your total clinical experience with this particular population, how depressed is the patient at this time? Respond by indicating 1=normal, not at all depressed, 2=borderline depressed, 3=mildly depressed, 4=moderately depressed, 5=markedly depressed, 6=severely depressed, or 7=among the most extremely depressed patients. Question 2) Global Improvement: Rate total improvement whether or not, in your judgment, it is due entirely to drug treatment. Compared to his/her condition at Visit 3, how much has he/she changed?
Methods: Patients who met DSM-IV criteria for new MDD and insomnia received fluoxetine 20 mg QAM plus either eszopiclone 3 mg (n=275) or placebo (n=270) nightly for 8 weeks. Efficacy was assessed using HAMD17 and Clinical Global Impression Improvement (CGI-I) and Severity (CGI-S). Response=50% decrease from baseline HAMD17; remission=HAMD17≦7.

[1] = Visit 4 (Week 1), 3 mg nightly + fluoxetine
[2] = Visit 5 (Week 2), 3 mg nightly + fluoxetine
[3] = Visit 6 (Week 3), 3 mg nightly + fluoxetine
[4] = Visit 7 (Week 4), 3 mg nightly + fluoxetine
[5] = Visit 8 (Week 6), 3 mg nightly + fluoxetine
[6] = Visit 9 (Week 8), 3 mg nightly + fluoxetine
[7] = Visit 10 (EOT; Week 10, after single-blind wash-out), eszopiclone 3 mg group

SMILES: CN1CCN(C(=O)OC2c3nccnc3C(=O)N2c2ccc(Cl)cn2)CC1 (single isomer, unassigned; (+)) [Eszopiclone, (+) 6-(5-chloro-2-pyridinyl)-6,7-dihydro-7-oxo-5H-pyrrolo[3,4b]pyrazin-5-yl 4-methylpiperazine-1-carboxylate]
- CGI - Global Improvement, Mean (SD) [1]: 3.3 (0.8)
- CGI - Global Improvement, Median [1]: 3.0
- CGI - Severity, Change from Baseline, Mean (SD) [1]: −0.3 (0.7)
- CGI - Severity, Change from Baseline, Median [1]: 0.0
- CGI - Severity, Observed Value, Mean (SD) [1]: 4.0 (0.7)
- CGI - Severity, Observed Value, Median [1]: 4.0
- CGI - Severity, Change from Baseline, Least Squares Mean (SE) [1]: −0.3 (0.0)
- CGI - Global Improvement, Mean (SD) [2]: 2.9 (0.8)
- CGI - Global Improvement, Median [2]: 3.0
- CGI - Severity, Change from Baseline, Mean (SD) [2]: −0.8 (0.9)
- CGI - Severity, Change from Baseline, Median [2]: −1.0
- CGI - Severity, Observed Value, Mean (SD) [2]: 3.6 (0.9)
- CGI - Severity, Observed Value, Median [2]: 4.0
- CGI - Severity, Change from Baseline, Least Squares Mean (SE) [2]: −0.8 (0.1)
- CGI - Global Improvement, Mean (SD) [3]: 2.6 (0.9)
- CGI - Global Improvement, Median [3]: 3.0
- CGI - Severity, Change from Baseline, Mean (SD) [3]: −1.1 (1.0)
- CGI - Severity, Change from Baseline, Median [3]: −1.0
- CGI - Severity, Observed Value, Mean (SD) [3]: 3.2 (1.0)
- CGI - Severity, Observed Value, Median [3]: 3.0
- CGI - Severity, Change from Baseline, Least Squares Mean (SE) [3]: −1.1 (0.1)
- CGI - Global Improvement, Mean (SD) [4]: 2.4 (1.0)
- CGI - Global Improvement, Median [4]: 2.0
- CGI - Severity, Change from Baseline, Mean (SD) [4]: −1.4 (1.1)
- CGI - Severity, Change from Baseline, Median [4]: −1.0
- CGI - Severity, Observed Value, Mean (SD) [4]: 3.0 (1.1)
- CGI - Severity, Observed Value, Median [4]: 3.0
- CGI - Severity, Change from Baseline, Least Squares Mean (SE) [4]: −1.3 (0.1)
- CGI - Global Improvement, Mean (SD) [5]: 1.9 (0.9)
- CGI - Global Improvement, Median [5]: 2.0
- CGI - Severity, Change from Baseline, Mean (SD) [5]: −1.8 (1.2)
- CGI - Severity, Change from Baseline, Median [5]: −2.0
- CGI - Severity, Observed Value, Mean (SD) [5]: 2.5 (1.0)
- CGI - Severity, Observed Value, Median [5]: 2.5
- CGI - Severity, Change from Baseline, Least Squares Mean (SE) [5]: −1.8 (0.1)
- CGI - Global Improvement, Mean (SD) [6]: 1.9 (1.0)
- CGI - Global Improvement, Median [6]: 2.0
- CGI - Severity, Change from Baseline, Mean (SD) [6]: −1.9 (1.3)
- CGI - Severity, Change from Baseline, Median [6]: −2.0
- CGI - Severity, Observed Value, Mean (SD) [6]: 2.4 (1.2)
- CGI - Severity, Observed Value, Median [6]: 2.0
- CGI - Severity, Change from Baseline, Least Squares Mean (SE) [6]: −1.8 (0.1)
- CGI - Severity, Change from Baseline, Least Squares Mean (SE) [7]: −2.2 (0.1)
- CGI - Global Improvement, Mean (SD) [7]: 1.6 (0.9)
- CGI - Global Improvement, Median [7]: 1.0
- CGI - Severity, Change from Baseline, Mean (SD) [7]: −2.3 (1.2)
- CGI - Severity, Change from Baseline, Median [7]: −2.0
- CGI - Severity, Observed Value, Mean (SD) [7]: 2.0 (1.0)
- CGI - Severity, Observed Value, Median [7]: 2.0
- CGI-I and CGI-S scores versus placebo (p<0.05, 3 mg nightly + fluoxetine): significantly greater
